Article PMC8039949, “A novel small-molecule PROTAC selectively promotes tau clearance to improve cognitive functions in Alzheimer-like models” (Theranostics, 2021)

What was measured:
tau = experiment: Multiple-doses subcutaneous administration in hTau transgenic mice, brain tau; assay type: in vivo, mouse; settings: 12 m-old hTau transgenic mice, subcutaneous 3 mg/kg once every 6 days, 5 times
Protocol: (§1) For brain surgery and stereotaxic cerebroventricular drug delivery, the mice were placed in a stereotaxic apparatus and anesthetized with 2% isoflurane (RWD Life Science, R510-22) through a nose cone (300-500 mL/min, RWD Life Science, China, R500). The scalp was incised along the midline between the ears after the mice were sterilized with iodophors and 75% (vol/vol) alcohol. The holes were drilled stereotaxically in the skull at a cerebroventricular location (posterior 0.22 mm, lateral 0.9 mm, and ventral 2.3 mm relative to bregma). Using a microinjection system (Shenzhen RWD Life Technology Co., Ltd; RWD 69100), C004019 (5 μL, 200 μM) was infused at a rate of 0.5 μL/min. The needle was kept in place for 10 min before withdrawal. After the skin was sutured, the mice were placed on a heater for analepsia. For subcutaneous injection, C004019 was diluted with 20% HP-β-CD and injected under the skin on the back neck to reach a final concentration of 3 mg/kg (low dose) or 15 mg/kg (high dose).
The cells or hippocampal/cortex tissues were homogenized for ~ 30 min on ice in buffer [50 mM Tris·HCl pH 7.4-7.5, 100 mM NaCl, 1% (vol/vol) Triton X-100, 5 mM EDTA, 1:100 PMSF, 1:1,000 protease inhibitor cocktail containing 4-(2-Aminoethyl)-benzenesulfonyl fluoride hydrochloride, aprotinin, bestatin, leupeptin, E-64, and pepstatin A stored at 4 °C], and then centrifuged at 12,000 × g at 4 °C for 20 min. The supernatant was collected and the protein levels were analyzed using bicinchoninic acid (BCA, KF016, Sigma-Aldrich) by following the manufacturer's instruction (served as soluble protein). The pellet was further incubated with 8% (wt/vol) SDS buffer at 4 °C and then treated by ultrasonic wave to reach a complete resuspension. The suspension was spun (18,000 × g, 4 °C for 20 min) and the supernatant collected (served as insoluble fraction). The supernatant of different faction was respectively mixed with loading buffer (3:1, vol/vol) containing 200 mM Tris-HCl, pH 6.8, 8% SDS, 40% glycerol, and boiled for 10 min. […] Immunoreactive bands were quantitatively analyzed by Image J2x software. […]

MAP2 = target: T1, MAP2 (Mus musculus, UniProt P20357); experiment: MAP2 protein level after intracerebroventricular infusion (specificity); assay type: in vivo; settings: 4 m-old wild-type and 9.5 m-old 3xTg-AD mice; intracerebroventricular 5 μL, 200 μM
T1 construct: from tissue; host or cells: hippocampus and cortex of wild-type and 3xTg-AD mice
T1 sequence (P20357 whole entry, the tested form may be a part): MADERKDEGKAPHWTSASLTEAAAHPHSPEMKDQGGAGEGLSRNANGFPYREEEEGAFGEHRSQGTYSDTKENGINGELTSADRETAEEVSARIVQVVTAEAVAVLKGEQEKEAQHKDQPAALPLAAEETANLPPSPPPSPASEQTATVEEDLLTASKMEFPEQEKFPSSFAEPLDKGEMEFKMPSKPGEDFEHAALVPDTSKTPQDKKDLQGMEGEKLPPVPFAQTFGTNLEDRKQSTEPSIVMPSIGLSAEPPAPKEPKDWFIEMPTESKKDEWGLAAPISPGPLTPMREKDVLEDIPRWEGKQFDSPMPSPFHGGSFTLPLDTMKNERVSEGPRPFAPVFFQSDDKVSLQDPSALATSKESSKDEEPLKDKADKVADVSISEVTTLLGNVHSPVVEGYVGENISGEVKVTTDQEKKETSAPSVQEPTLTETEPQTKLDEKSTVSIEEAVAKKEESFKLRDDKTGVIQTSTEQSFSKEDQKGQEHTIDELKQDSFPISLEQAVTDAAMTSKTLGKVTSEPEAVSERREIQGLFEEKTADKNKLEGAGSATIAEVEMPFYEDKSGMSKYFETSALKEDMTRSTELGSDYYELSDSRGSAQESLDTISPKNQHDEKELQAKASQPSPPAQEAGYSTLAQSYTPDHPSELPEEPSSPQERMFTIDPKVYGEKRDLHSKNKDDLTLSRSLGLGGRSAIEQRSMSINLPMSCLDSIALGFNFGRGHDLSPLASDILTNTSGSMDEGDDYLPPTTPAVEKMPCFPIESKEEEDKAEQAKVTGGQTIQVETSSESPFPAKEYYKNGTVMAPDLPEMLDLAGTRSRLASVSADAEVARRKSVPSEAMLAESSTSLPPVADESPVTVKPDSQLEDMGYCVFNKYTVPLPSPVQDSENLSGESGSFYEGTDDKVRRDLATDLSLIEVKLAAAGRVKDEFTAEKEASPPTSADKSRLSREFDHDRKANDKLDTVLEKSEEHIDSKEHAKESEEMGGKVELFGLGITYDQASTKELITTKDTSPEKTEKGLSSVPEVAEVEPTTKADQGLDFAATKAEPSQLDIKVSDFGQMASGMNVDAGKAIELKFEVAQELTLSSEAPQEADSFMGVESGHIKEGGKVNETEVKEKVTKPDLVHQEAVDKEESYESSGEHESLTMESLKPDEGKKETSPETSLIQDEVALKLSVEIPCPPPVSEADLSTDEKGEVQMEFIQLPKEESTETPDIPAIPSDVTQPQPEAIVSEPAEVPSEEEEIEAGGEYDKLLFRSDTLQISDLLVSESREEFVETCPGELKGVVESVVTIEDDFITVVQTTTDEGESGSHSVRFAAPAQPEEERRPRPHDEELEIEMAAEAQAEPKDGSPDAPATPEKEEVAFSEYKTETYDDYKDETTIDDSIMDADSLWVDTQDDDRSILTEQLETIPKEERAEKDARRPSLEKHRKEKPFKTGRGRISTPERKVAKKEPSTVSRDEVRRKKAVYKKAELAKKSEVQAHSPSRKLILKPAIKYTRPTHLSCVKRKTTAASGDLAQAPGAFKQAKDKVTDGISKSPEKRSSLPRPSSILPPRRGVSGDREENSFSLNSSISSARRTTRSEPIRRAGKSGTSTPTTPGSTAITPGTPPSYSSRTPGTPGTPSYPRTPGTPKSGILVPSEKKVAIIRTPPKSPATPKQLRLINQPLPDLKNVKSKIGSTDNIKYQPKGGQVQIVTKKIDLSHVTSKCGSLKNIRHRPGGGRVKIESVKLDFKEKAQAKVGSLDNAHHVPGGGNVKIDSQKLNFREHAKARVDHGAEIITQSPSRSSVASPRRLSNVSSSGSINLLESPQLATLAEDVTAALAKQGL
Protocol: as §1, with “The needle was kept in place for 10 min before withdrawal. After the skin was sutured, the mice were placed on a heater for analepsia. For subcutaneous injection, C004019 was diluted with 20% HP-β-CD and injected under the skin on the back neck to reach a final concentration of 3 mg/kg (low dose) or 15 mg/kg (high dose).” left out
The cells or hippocampal/cortex tissues were homogenized for ~ 30 min on ice in buffer [50 mM Tris·HCl pH 7.4-7.5, 100 mM NaCl, 1% (vol/vol) Triton X-100, 5 mM EDTA, 1:100 PMSF, 1:1,000 protease inhibitor cocktail containing 4-(2-Aminoethyl)-benzenesulfonyl fluoride hydrochloride, aprotinin, bestatin, leupeptin, E-64, and pepstatin A stored at 4 °C], and then centrifuged at 12,000 × g at 4 °C for 20 min. The supernatant was collected and the protein levels were analyzed using bicinchoninic acid (BCA, KF016, Sigma-Aldrich) by following the manufacturer's instruction (served as soluble protein). […] Immunoreactive bands were quantitatively analyzed by Image J2x software.

CC(=O)N1CCCN(c2nc(NCCc3cccs3)nc(N(C)CC(=O)NCCOCCOCCOCC(=O)N[C@H](C(=O)N3C[C@H](O)C[C@H]3C(=O)NCc3ccc(-c4scnc4C)cc3)C(C)(C)C)n2)CC1 [C004019]
p-tau and tau aggregation (HT7, AT8 immunohistochemistry, Thioflavin S staining) (tau): Reduction of p-tau and tau aggregation | soluble and insoluble tau in cortex extracts (tau; Western blotting): could reduce both soluble and insoluble tau | total and p-tau levels in hippocampal extracts (tau; Western blotting): significantly reduced total and p-tau levels | protein level of MAP2 (MAP2): did not change the level of MAP2
